Values joined by “and” are separate entries in the source; they are usually repeats but may differ in a detail not shown here. Equal values may be shown once. “Also recorded” adds a separate entry of the source.
Test: Plasma stability study of compound 8 in rat plasma
Format: in vitro ADME, SD rat
Settings: for Residual compound 8 concentration: 37° C., Repeat 1 and 2
Procedure: The purpose of this example was to investigate the stability of incubation of compound 8 in rat plasma (compound 8 was metabolized to form intermediate compound 12 and Linifanib, intermediate compound 12 was further metabolized to form Linifanib), and the metabolites were quantified and analyzed, and the stability of the incubation system was verified by a positive drug, which provided a reference for the evaluation of the drug-forming properties of the compound.
1. Instruments and Materials • Instrument: API3000 LC/MS, ABI • Materials: Male SD rats (200-250 g), Beijing Vital River • Test sample: positive drug and its metabolites M1 and M2, compound 8 and its metabolite compound 12 and Linifanib.
2. Compound 8 Plasma Stability Study • Test animal • Type: SD rat; Quantity: 2 • Sex: male; weight: 200-250 g;
Experimental Procedure • 1). Animal blood was collected, blood samples were placed in EDTA anticoagulation tubes, centrifuged at 3000 g for 15 min at 4° C., plasma was separated, and 2 blood samples were mixed in equal volumes; • 2). Weighed a certain amount of compound 8 and dissolved in DMSO:MeOH (2:8), prepared into 200 μM mother liquor by purity conversion, and added the compound to plasma to reach a final concentration of 1 μg/mL in plasma. The organic ratio in the system was not more than 0.5%. • 3). Incubated in a 37° C. water bath and set the sampling points to 0, 0.5, 1, 2, 4, 6, 8 h. At each sampling point, 100 μL of each sample was collected and 300 μL of acetonitrile (with internal standard) was added for precipitation, centrifuged at 12,000 rpm for 5 min, and 200 μL of supernatant was taken for analysis by LC-MS/MS. • 4). Configured the standard curve to quantify compound 8, compound 12 and Linifanib

In the case of `Cc1ccc(F)c(NC(=O)Nc2ccc(-c3cccc4[nH]nc(NC(=O)CCCCCCCCCCCNC(=O)C[C@H](N)C(=O)N[C@@H](CCC(=O)N[C@@H](CCC(=O)N[C@@H](CCC(=O)N[C@@H](CCC(=O)O)C(=O)O)C(=O)O)C(=O)O)C(=O)O)c34)cc2)c1` [Compound 8], the “amount of Compound 12 and Linifanib produced by metabolism” value was “extremely small”, the “Residual compound 8 concentration” value (0 h) was 1200 ng/mL and 680 ng/mL and the “Residual compound 8 concentration” value (0.5 h) was 1190 ng/mL and 1450 ng/mL. For the same molecule, the “Residual compound 8 concentration” value (1 h) was 1460 ng/mL and 1620 ng/mL, the “Residual compound 8 concentration” value (2 h) was 960 ng/mL and 1040 ng/mL and the “Residual compound 8 concentration” value (4 h) was 876 ng/mL and 868 ng/mL. For the same molecule, the “Residual compound 8 concentration” value (6 h) was 1110 ng/mL and 1190 ng/mL, the “Residual compound 8 concentration” value (8 h) was 1200 ng/mL and 680 ng/mL and the stability in plasma (up to 8 h) was “relatively stable; also recorded: very good”.

Reference: patent publication US11712434B2, “Compound having anti-cancer effect, and preparation method therefor and use thereof” (3D MEDICINES (BEIJING) CO., LTD., priority 2016, dated 2023)
